Data set [1] relates to B lymphocyte. Nature of the data set: Lymphocyte proliferation test, B lymphocyte proliferation response induced by LPS ([3H]-thymidine). Conditions: 48 hours. Format: cell-based, mouse. The procedure: 3. After incubated in 5% CO2 incubator at 37° C. for 48 hours, 0.5 μCi [^3H]-thymidine (25 μL/well) was added into each well 7-8 hours before the termination of the incubation. 4.

A short description of data set [2]: Lymphocytotoxicity test (MTT). Format: cell-based, mouse. Conditions: BALB/c, primary spleen cells (splenic mononuclear cells), mouse spleen cells. On the procedure:
(§1) A. Lymphocytotoxicity Test
(§2) 1. BALB/c mice were killed by cervical dislocation, and their spleens were removed aseptically. A single spleen cell suspension was prepared and cell debris and clumps were removed.
(§3) 2. 80 μL cell suspension, 40 μL testing sample, 40 μL medium containing 10% FBS were added into 96 well plate; for the control group, 80 μL medium was added the total volume was 160 μL, and blank control group was set.
(§4) 3. After incubated in 5% CO2 incubator at 37° C. for 48 hours, 16 μL MTT (5 mg/mL) reagent was added into each well 6-7 hours before the termination of the incubation.

For data set [3], the system named is T lymphocyte. Nature of the data set: Lymphocyte proliferation test, T lymphocyte proliferation response induced by ConA ([3H]-thymidine). The class given is cell-based, mouse. Conditions: 48 hours. On the procedure: B. Lymphocyte Proliferation Test […] […] 3. After incubated in 5% CO2 incubator at 37° C. for 48 hours, 0.5 μCi [^3H]-thymidine (25 μL/well) was added into each well 7-8 hours before the termination of the incubation. 4.

Data set [4] has as its system BALB/c mouse spleen cells. Nature of the data set: Lymphocytotoxicity test (MTT). Format: cell-based. Conditions: 48 hours. On the procedure: as §1, §2, §3, §4
Data set [5] has as its system BALB/c mouse spleen cells and C57BL/6 mouse spleen cells. The procedure: C. Mixed Lymphocyte Reaction (MLR)
1. C57BL/6 and BALB/c mice were killed by cervical dislocation, their spleens were removed aseptically, and a single spleen cell suspension was prepared. After the red blood cells were removed, the cell concentration was adjusted to 4×10^6/mL with RPMI-1640 medium containing 10% FBS.
2. The spleen cells of C57BL/6 mice were response cells, and the spleen cells of BALB/c mice (irradiated with Co60, 3000 rads) were stimulator cells, the two kinds of cells were mixed with equal volumes.
3. 100 μL mixed cell suspension, 100 μL test sample were added into a 96-well plate; for the control group, 100 μL medium containing 10% serum was added, and single culture controls of the two kinds of cells were set.
4. Incubated in 5% CO2 incubator at 37° C. for 3, 4 or 5 days. 25 μL ^3H dilution (i.e. […] [^3H]-thymidine) was added 1 day before the termination of the incubation.
5. The incubation was terminated, the plate was freezed in a −20° C. refrigerator.
6. The cells were harvested with a cell harvestor ([…]96®, TOMTEC) on a glass fiber film, the incorporation of [^3H]-thymidine in DNA was detected with a liquid scintillation counter (MicroBeta Trilux®, PerkinElmer), which reflected the state of cell proliferation.

The subject of data set [6] is BALB/c mice. Conditions: administered in vivo, BALB/c mice immunized with sheep red blood cells.
Method: F. Production of Anti Sheep Red Blood Cell Specific Antibody of Mouse B Cells
Fresh sheep red blood cells (SRBC) were washed 3 times with PBS (pH7.2), and diluted by 1:20;
Fresh serum of guinea pig was diluted by 1:10;
2×10^7/mL of mouse spleen cell suspension was prepared;
Each 1 mL of the above three solutions was mixed and incubated at 37° C. for 1.5 hours, then is centrifuged with 2500 rpm×15 min. OD value was measured at 520 nM.
BALB/c mice were sensitized 3 days after administration: the sheep red blood cells were washed 3 times with saline, and the SRBC pressed volume was diluted by a rate of 5%. Each mouse was intraperitoneally injected with 0.2 mL, and dissected to take its spleen 6 days after sensitization. And the production amount of the antibodies was measured.
For data set [7], the system named is SD rats. The following applies: intraperitoneally injected.
Data set [8] relates to BALB/c mice. Conditions: ear swelling.
Method: Each rear paw of BALB/c mice (female, 6-8 weeks old) was sensitized with 20 μL 0.5% DNFB (2,4-dinitrofluorobenzene) on day 0, and was reinforced next day (DNFB was dissolved in an oil agent [acetone:olive oil=4:1]);
Inside and outside of left ear of the mice were challenged with 10 μL 0.4% DNFB at day 7-9;
The test sample was administrated once 1 hour before challenge by i.p. injection or intragastric adminatration. After 12 hours, administered again;
24-48 hours after challenge, each index was measured.
Note: For BALB/c mice (female, 6-8 weeks old), the concentration of sensitizing agent was 0.7%, the concentration of challenging agent was 0.6%.
The test system of data set [9] is TNF-α. Conditions: stimulated with PMA; dose dependent. On the procedure: (§5) D. Induction and Detection of Cytokine
(§6) 1. BALB/c mice were killed by cervical dislocation, their spleens were removed aseptically, and a single spleen cell suspension was prepared. After the red blood cells were removed, the cell concentration was adjusted to 5×10^6/mL with RPMI-1640 medium containing 10% FBS.
(§7) 2. 1 mL cell suspension, 0.5 mL test sample and 0.5 mL ConA (final concentration 5 μg/mL) or Sac (Staphylococcus aureus thallus containing staphylococcus protein A) (final concentration 0.01%) were added into […]; for the control group, 0.5 mL medium containing 10% FBS was added, the final volume was 2 mL.
(§8) 3. Incubated in 5% CO2 incubator at 37° C. for 24 or 48 hours, the supernatant was collected and freezed in −20° C. refrigerator, the cytokines was to be detected.
(§9) 4. Production of cytokines was detected with a double antibody sandwich enzyme linked immunosorbent assay (ELISA). TMB was used as substrate of the enzyme reaction, and the OD values was measured with a microplate reader at 450 nm. The production amount of cytokines of the samples was calculated according to the standard curve.

Data set [10] has as its system IFN-γ. The following applies: for production of cytokine IFN-γ: 24 hours. On the procedure: as §5, §6, §7, §8, §9
The subject of data set [11] is IL-6. Conditions: for production of cytokine IL-6: 24 hours. On the procedure: as §5, §6, §7, §8, §9
The subject of data set [12] is IL-12. The following applies: for production of cytokine IL-12: 24 hours. The procedure:
as §5, §6, §7, §8, §9

The subject of data set [13] is IL-2. The following applies: stimulator ConA, 24 hours. The procedure: as §5, §6, §7, §8, §9
[14] abbreviates: mouse spleen cells, LPS, read-out: Inhibiting activity of B lymphocyte proliferation response induced by LPS IC50.
[15] abbreviates: mouse spleen cells, read-out: Lymphocytotoxicity CC50.
[16] abbreviates: mouse spleen cells, ConA, read-out: Inhibiting activity of T lymphocyte proliferation response induced by ConA IC50.
The mark [17] stands for this setting: SM735 10−^5 Mol/L, stimulator LPS.
[18] abbreviates: SM735 10−^5 Mol/L, stimulator PMA + Ion.
Where [19] appears, read: SM735 10−^6 Mol/L, stimulator LPS.
Where [20] appears, read: SM735 10−^6 Mol/L, stimulator PMA + Ion.
Where [21] appears, read: SM735 10−^7 Mol/L, stimulator LPS.
Setting [22] is: SM735 10−^7 Mol/L, stimulator PMA + Ion.

In brackets after ≈: the same amount, converted by molar mass. Read-outs that look alike come from different tables or passages of the source.

By CC50 is commonly meant the concentration that lowers cell viability or growth by half.

As for `C[C@@H]1CC[C@H]2[C@@H](C)C(=O)O[C@@H]3O[C@@]4(C)CC[C@@H]1[C@]32OO4` [artemisinine, artemisinin], the IC50 in data set [1] (Lymphocyte, mouse spleen cells, LPS, read-out: Inhibiting activity of B lymphocyte proliferation response induced by LPS IC50) came out at 8.96 µM; in [3] (T-lymphocyte, mouse spleen cells, ConA, read-out: Inhibiting activity of T lymphocyte proliferation response induced by ConA IC50) it was 4.43 µM. In addition, the CC50 at 48 h in data set [2] amounted to 28.3 µM.
On to `CC(C(=O)O)c1ccc(OC2OC3OC4(C)CCC5C(C)CCC(C2C)C35OO4)cc1` (stereo not drawn) [compound 22, 2-[4-(12β-artemisininoxy)phenyl] propanoic acid], for which the IC50 in data set [1] (setting [14]) came to 8.6 µM; in data set [3] (setting [16]), 3.6 µM. Also, in data set [4] (setting [15]), the CC50 worked out at 59.6 µM.
In the case of `CC1CCC2C(C)C(Oc3cccc(OC(CC(=O)O)C(=O)O)c3)OC3OC4(C)CCC1C32OO4` (stereo not drawn) [compound 3, 3-(12β-artemisininoxy)phenoxy succinic acid], in data set [5] (96 hours), the “IC50, proliferation response caused by mixed lymphocyte reaction” value was 2.1 µg/mL (≈ 4.26 µM). The IC50 in [5] (read-out: IC50, one way mixed lymphocyte reaction, co-cultured for 96 hours, no unit printed) came out at 0.86 ± 0.18 µM; in [1] (mean ± standard error, read-out: IC50, proliferation of spleen cells induced by LPS), 0.27 ± 0.02 µM; in data set [1] (setting [14]), 0.265 µM; in data set [3] (mean ± standard error, read-out: IC50, proliferation of spleen cells induced by ConA), 0.33 ± 0.06 µM; in [3] (setting [16]) it was 0.327 µM. In addition, the “antibody and complement production by mouse B cell (antibody forming cell)” value in data set [6] is listed as “inhibited”. Also, the “effect in rat adjuvant-induced arthritis animal model” value in data set [7] is “certain preventive and therapeutic effect”. Further, the “DTH reaction induced by DNFB” value in data set [8] is reported as “inhibited”. Besides, in [9], the “production of TNF-α (result in words)” value is reported as “obviously inhibited”. The “production of cytokine IFN-γ” value in [10] (SM735 10−^5 Mol/L, stimulator ConA) is 322 ± 18 pg/mL; in [10] (setting [17]), 103 ± 7 pg/mL; in data set [10] (setting [18]), 144 ± 21 pg/mL; in data set [10] (SM735 10−^6 Mol/L, stimulator ConA), 976 ± 18 pg/mL; in data set [10] (setting [19]), 172 ± 2 pg/mL; in [10] (setting [20]), 557 ± 31 pg/mL. Besides, the “production of cytokine IFN-γ” value turned out to be 1219 ± 33 pg/mL in data set [10] (SM735 10−^7 Mol/L, stimulator ConA); 207 ± 13 pg/mL in [10] (setting [21]); 768 ± 6 pg/mL in [10] (setting [22]). Also, the “production of IFN-γ (result in words)” value in [10] (activated lymphocytes) is on record as “inhibited”. In addition, the “production of cytokine IL-6” value was determined as 522 ± 1 pg/mL in [11] (setting [17]); 1465 ± 35 pg/mL in [11] (setting [18]); 792 ± 42 pg/mL in [11] (setting [19]); 2663 ± 52 pg/mL in data set [11] (setting [20]); 840 ± 10 pg/mL in [11] (setting [21]); 2886 ± 26 pg/mL in data set [11] (setting [22]). Moreover, the “production of IL-6 (result in words)” value in [11] (stimulated with PMA, dose dependent) is given as “obviously inhibited”. Moreover, the “production of cytokine IL-12” value worked out at 292 ± 26 pg/mL in [12] (setting [17]); 198 ± 35 pg/mL in data set [12] (setting [18]); 565 ± 18 pg/mL in data set [12] (setting [19]); 487 ± 37 pg/mL in data set [12] (setting [20]); 592 ± 33 pg/mL in [12] (setting [21]); 586 ± 52 pg/mL in data set [12] (setting [22]). In addition, the “production of IL-12 (result in words)” value in data set [12] (activated lymphocytes) is reported as “inhibited”. The entries for the “production of cytokine IL-2” value in data set [13] (SM735 10−^5 Mol/L), in data set [13] (SM735 10−^6 Mol/L) and in [13] (SM735 10−^7 Mol/L) were 2053 ± 162 pg/mL, 2343 ± 154 pg/mL and 2250 ± 77 pg/mL, respectively. For the same compound, in data set [1], the “IC50, B lymphocyte proliferation response induced by LPS” value turned out to be 0.12 µg/mL (≈ 0.244 µM). Besides, in [4] (BALB/c mouse spleen cells), the “cytotoxicity CC50” value amounted to 27 µg/mL. Besides, the CC50 amounted to 53.1 ± 7.8 µM in data set [4] (BALB/c mouse spleen cells, mean ± standard error, read-out: cytotoxicity CC50) and 52.7 µM in data set [4] (setting [15]). Also, in [3], the “IC50, T lymphocyte proliferation response induced by ConA” value was determined as 0.13 µg/mL (≈ 0.264 µM).
Take `COc1ccccc1OC(=O)C(C)Oc1cccc(OC2OC3OC4(C)CCC5C(C)CCC(C2C)C35OO4)c1` (stereo not drawn) [compound 30, o-methoxy-phenyl 2-[3-(12α-artemisininoxy)phenoxy] propionate]: the IC50 in data set [1] (setting [14]) is 0.82 µM; in data set [3] (setting [16]) it was 5.73 µM. Further, in data set [4] (setting [15]), the CC50 came out at 8.23 µM.

(Values after patent publication US7910750B2, “Artemisinin (qinghaosu) derivatives, their preparation methods and their use, and pharmaceutical compositions containing the same” (Shanghai Institute of Materia Medica, Chinese Academy of …, priority 2005, dated 2011).)
